Assay results: patent US8357365B2, “Granulysin peptides and methods of use thereof” (The Regents of the University of California, priority 2005, dated 2013)
Entries after “also recorded” stand apart in the source; their conditions may differ.

Legend:
[1] = tested on: Escherichia coli; settings: earlier study, Ernst et al., 2000; cited from earlier work
[2] = tested on: Propionibacterium acnes strain ATCC 6919; assay: CFU assay of antimicrobial activity against P. acnes; type: cell-based; settings: for reduction of the number of viable P. acnes: 100 μM of peptide (FIG. 1B)
Protocol: CFU assay. The CFU assay was performed as described previously (Ernst et al., (2000) Immunol 165:7102-7108). Propionibacterium acnes strain ATCC 6919 (American Type Cell Culture, Manassas, Va.) was grown under anaerobic conditions in Reinforced Clostridial Medium (Oxoid, Basingstroke, England) for two days and collected in mid-log phase. The bacteria were washed three times with the assay buffer, 10 mM sodium phosphate, pH 7.2, supplemented with 0.03% trypticase soy broth (TSB, Becton-Dickinson, Cockeysville, Md.), and enumerated by applying a conversion factor of 7.5×10^7 bacteria/mL=1 OD unit at 600 nm. Various concentrations of granulysin or granulysin peptides were incubated with 3.75×10^5 bacteria in a final volume of 30 μL at 37° C. for four hours. […] Plates were incubated for four days at 37° C. under anaerobic conditions, then individual colonies were counted and the number of CFU per tube was calculated.

[3] = tested on: Mycobacterium tuberculosis; settings: earlier study, Ernst et al., 2000; cited from earlier work
[4] = tested on: inflammatory cytokines and chemokines; assay: P. acnes-stimulated production of cytokines and chemokines by monocytes; type: cell-based; settings: primary human monocytes (FIG. 5)
Protocol: (§1) Primary Human Monocyte Isolation and Stimulation. Peripheral human blood was drawn from normal healthy volunteers into heparinized tubes according to a protocol approved by the Institutional Review Board at UCLA. PBMCs were then isolated on Ficoll-Paque gradients (Pharmacia, Piscataway, N.J.) and plated (5×10^5/well) in 96-well plates for 2 hours in 1% FCS (Omega Scientific, Tarzana, Calif.). Non-adherent cells were removed by washing 3 times with RPMI media, leaving adherent cells. Adherent monocytes were cultured in 10% FCS with P. acnes sonicate, granulysin peptides, or P. acnes sonicate together with various concentrations of granulysin peptide for 24 hours at 37° C. Monocyte supernatants were harvested and assayed for IL-12p40 using cytokine-specific, commercially available antibody pairs in a standard sandwich ELISA (Biosource International, Camarillo, Calif., or BD PharMingen, San Diego, Calif.). Capture antibodies were coated to 96-well EIA/RIA plates (Costar, Corning) and detection was achieved by incubating with biotinylated antibodies followed by Immunopure HRP-conjugated streptavidin (Pierce, Rockford, Ill.) and the ABTS Microwell Peroxidase Substrate System (Kirkegaard & Perry Laboratories, Gaithersburg, Md.). The absorbance at 405 nm was read using a microtiter plate reader, and cytokine concentrations were calculated from a standard curve of recombinant cytokine (Biosource or Pharmingen). Supernatants were assayed for other cytokines using Pierce SearchLight Multiplex Cytokine array services (Pierce Biotechnology, Woburn, Mass.).

[5] = tested on: IP-10; assay: Cytokine array, P. acnes-stimulated monocytes, IP-10; type: cell-based, human
Protocol: as §1, with “Capture antibodies were coated to 96-well EIA/RIA plates (Costar, Corning) and detection was achieved by incubating with biotinylated antibodies followed by Immunopure HRP-conjugated streptavidin (Pierce, Rockford, Ill.) and the ABTS Microwell Peroxidase Substrate System (Kirkegaard & Perry Laboratories, Gaithersburg, Md.).” left out, “Supernatants were assayed for other cytokines using Pierce SearchLight Multiplex Cytokine array services (Pierce Biotechnology, Woburn, Mass.).” left out

[6] = tested on: MDC; assay: Cytokine array, P. acnes-stimulated monocytes, MDC; type: cell-based, human
Protocol: as §1, with “Capture antibodies were coated to 96-well EIA/RIA plates (Costar, Corning) and detection was achieved by incubating with biotinylated antibodies followed by Immunopure HRP-conjugated streptavidin (Pierce, Rockford, Ill.) and the ABTS Microwell Peroxidase Substrate System (Kirkegaard & Perry Laboratories, Gaithersburg, Md.).” left out, “Supernatants were assayed for other cytokines using Pierce SearchLight Multiplex Cytokine array services (Pierce Biotechnology, Woburn, Mass.).” left out

[7] = tested on: P. acnes; assay: Scanning and transmission electron microscopy of peptide-treated P. acnes; type: cell-based, Propionibacterium acnes; settings: 1 hour to 72 hours of peptide treatment (FIG. 2B, 2C)
Protocol: Electron microscopy. P. acnes at a concentration of 2.08×10^7 bacteria/mL was suspended in 10 mM sodium phosphate buffer pH 7.2 supplemented with 0.03% TSB and incubated with […] granulysin peptides. Samples were then fixed for 30 minutes with 2% gluteraldehyde in 1×PBS, pH=7.35, room temperature, then washed three times and suspended in 1 mL 1×PBS. Scanning EM samples were filtered onto a micropore filter. The filters with the sample on top were dehydrated in graded ethanol; 50, 75, 95 and 100%-15 minutes in each, followed by similar transfers in hexa-methyl-disilazane reagent; 50, 75, 95%-30 minutes each followed by 100% hexa-methyl-disilazane reagent overnight. The scanning EM samples were gold coated and then viewed and photographed on a Cambridge Scanning electron microscope. Transmission EM samples were dehydrated in graded ethanol as above, embedded in Epon, and sectioned on Sorvall MT6000 (RMC, Tucson Ariz.). Thin sections ([…]) were stained with uranyl acetate, viewed and photographed on Jeol XC100 at 80-kV

[8] = tested on: IL-12p40; assay: IL-12p40 ELISA, P. acnes-stimulated primary human monocytes; type: cell-based; settings: compared to peptides 1-20 and 16-35 (FIG. 5A)
Protocol: as §1, with “Capture antibodies were coated to 96-well EIA/RIA plates (Costar, Corning) and detection was achieved by incubating with biotinylated antibodies followed by Immunopure HRP-conjugated streptavidin (Pierce, Rockford, Ill.) and the ABTS Microwell Peroxidase Substrate System (Kirkegaard & Perry Laboratories, Gaithersburg, Md.).” left out, “Supernatants were assayed for other cytokines using Pierce SearchLight Multiplex Cytokine array services (Pierce Biotechnology, Woburn, Mass.).” left out

[9] = tested on: MCP-1; assay: Cytokine array, P. acnes-stimulated monocytes, MCP-1; type: cell-based, human
Protocol: as §1, with “Capture antibodies were coated to 96-well EIA/RIA plates (Costar, Corning) and detection was achieved by incubating with biotinylated antibodies followed by Immunopure HRP-conjugated streptavidin (Pierce, Rockford, Ill.) and the ABTS Microwell Peroxidase Substrate System (Kirkegaard & Perry Laboratories, Gaithersburg, Md.).” left out, “Supernatants were assayed for other cytokines using Pierce SearchLight Multiplex Cytokine array services (Pierce Biotechnology, Woburn, Mass.).” left out

GRDYRTSLTIVQKLKKMVDKPTQRSVSNAATRVSR [1-35]
killing of Escherichia coli [1]: capable of killing
reduction of the number of viable P. acnes [2]: 2 logs
killing of Mycobacterium tuberculosis [3]: capable of killing

TGRSRWRDVSRNFMRRYQSRVIQGLVAGETAQQIS [36-70]
killing of Escherichia coli [1]: capable of killing
killing of Mycobacterium tuberculosis [3]: capable of killing

TRVSRTGRSRWRDVSRNFMR [31-50]
P. acnes-stimulated production of cytokines and chemokines [4]: inhibit
killing of Escherichia coli [1]: capable of killing
reduction of the number of viable P. acnes [2]: 4 logs
killing of Mycobacterium tuberculosis [3]: capable of killing

TRVSRTGRSRWRDWSRNFMR [31-50v44w]
P. acnes-stimulated production of cytokines and chemokines [4]: inhibit
production of IP-10 [5]: inhibited
production of MDC [6]: inhibited
effect on P. acnes surface by scanning and transmission EM [7]: perturbs the surface integrity of P. acnes
P. acnes-stimulated production of IL-12p40 [8]: decreased
fewer bacteria as compared to incubation with peptide 31-50 ([2]; 32 μM of peptide (FIG. 2A)): 2-3 logs
production of MCP-1 [9]: inhibited

TRVSRTGRSRWRDWSRNFMR [D-31-50v44w] (all D-amino acids)
P. acnes-stimulated production of cytokines and chemokines [4]: decreased; also recorded: inhibit
antimicrobial potency in vitro as compared to 31-50v44w (D versus L form) ([2]; P. acnes): even greater potency
kind of antimicrobial activity against P. acnes (bacteriostatic or bactericidal) ([2]; comparison with widely used antibiotics (FIG. 3C)): bactericidal
